Source: ChEMBL document CHEMBL4819026, “4-Oxoquinolines and monoamine oxidase: When tautomerism matters” (Eur J Med Chem, 2021)

Experiments:
[1] = target: T1, Amine oxidase [flavin-containing] B (Homo sapiens, UniProt P27338); assay: Inhibition of recombinant human MAOB using kynuramine as substrate measured for 30 mins by fluorescence spectrophotometric assay
T1 sequence (P27338 whole entry): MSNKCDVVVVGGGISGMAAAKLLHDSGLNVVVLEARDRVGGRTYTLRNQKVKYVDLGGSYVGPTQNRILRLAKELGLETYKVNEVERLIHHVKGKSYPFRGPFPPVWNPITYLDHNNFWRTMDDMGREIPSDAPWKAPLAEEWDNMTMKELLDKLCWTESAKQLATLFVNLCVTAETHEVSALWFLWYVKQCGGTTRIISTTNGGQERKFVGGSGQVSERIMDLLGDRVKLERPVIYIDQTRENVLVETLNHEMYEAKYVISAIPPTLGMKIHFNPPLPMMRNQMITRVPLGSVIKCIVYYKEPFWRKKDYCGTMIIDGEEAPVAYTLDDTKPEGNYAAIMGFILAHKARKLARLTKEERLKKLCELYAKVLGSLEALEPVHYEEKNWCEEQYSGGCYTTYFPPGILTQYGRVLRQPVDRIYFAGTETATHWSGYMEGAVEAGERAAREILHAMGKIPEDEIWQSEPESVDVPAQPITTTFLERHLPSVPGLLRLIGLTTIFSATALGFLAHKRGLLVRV

[2] = target: T2, Amine oxidase [flavin-containing] A (Homo sapiens, UniProt P21397); assay: Inhibition of recombinant human MAOA using kynuramine as substrate at 10 uM measured for 30 mins by fluorescence spectrophotometric assay relative to control; conditions: 0.5 h
T2 sequence (P21397 whole entry): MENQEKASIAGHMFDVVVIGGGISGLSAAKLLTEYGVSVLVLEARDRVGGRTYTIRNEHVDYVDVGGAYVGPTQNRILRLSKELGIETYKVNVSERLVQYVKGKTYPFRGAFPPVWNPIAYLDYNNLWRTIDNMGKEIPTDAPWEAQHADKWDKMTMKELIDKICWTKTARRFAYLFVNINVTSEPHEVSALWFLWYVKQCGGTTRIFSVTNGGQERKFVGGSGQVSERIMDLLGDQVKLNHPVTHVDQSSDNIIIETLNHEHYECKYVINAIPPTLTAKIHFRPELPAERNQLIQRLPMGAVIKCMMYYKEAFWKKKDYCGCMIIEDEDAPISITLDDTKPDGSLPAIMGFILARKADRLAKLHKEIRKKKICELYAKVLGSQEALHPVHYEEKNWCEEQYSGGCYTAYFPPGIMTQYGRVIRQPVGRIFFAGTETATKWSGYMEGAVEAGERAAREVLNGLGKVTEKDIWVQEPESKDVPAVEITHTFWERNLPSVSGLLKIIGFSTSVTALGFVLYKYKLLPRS

Homo sapiens = species: Homo sapiens; assay: Selectivity index, ratio of IC50 for inhibition of human MAOA to IC50 for inhibition of human MAOB
[3] = Cytotoxicity against differentiated human SH-SY5Y cells assessed as cell viability at 10 uM after 24 hrs by resazurin reduction assay relative to control; type: cell-based; conditions: read-out: Activity
SH-SY5Y [4] = assay: Cytotoxicity against differentiated human SH-SY5Y cells assessed as cell viability at 1 to 10 uM after 24 hrs by neutral red uptake assay relative to control; type: cell-based; conditions: dose 1-10 µM
SH-SY5Y [5] = assay: Cytotoxicity against differentiated human SH-SY5Y cells assessed as cell viability at 1 to 10 uM after 24 hrs by SRB assay relative to control; type: cell-based; conditions: dose 1-10 µM
[6] = target: T1, Amine oxidase [flavin-containing] B; assay: Inhibition of recombinant human MAOB using kynuramine as substrate at 10 uM measured for 30 mins by fluorescence spectrophotometric assay relative to control; conditions: 0.5 h
[7] = target: T2, Amine oxidase [flavin-containing] A; assay: Inhibition of recombinant human MAOA using kynuramine as substrate measured for 30 mins by fluorescence spectrophotometric assay

Row | IC50 [1] | inhibition at 10 µM [2] | Ratio IC50 (Homo sapiens) | inhibition at 10 µM [6] | IC50 [7] | Structure (SMILES) | viability at 24 h, 10 µM [3] | Activity (SH-SY5Y [4]) | Activity (SH-SY5Y [5])
1 | 5.3 µM | 38% | > 1890 |  |  | Cn1cc(C(=O)Nc2ccc(Cl)c(Cl)c2)c(=O)c2ccccc21 | > 90% | Non-Toxic | Non-Toxic
2 |  | 15% |  | 35% |  | Cc1ccc(NC(=O)c2c[nH]c3ccccc3c2=O)cc1C |  |  | 
3 |  | 8% |  | 40% |  | O=C(Nc1cccc(Cl)c1)c1c[nH]c2ccccc2c1=O |  |  | 
4 | 82.3 µM |  | 19.6 |  | 1160 µM | Cc1ccc(NC(=O)c2cn(C)c3ccccc3c2=O)cc1C |  | Non-Toxic | Non-Toxic
5 | 29 µM |  | 258 |  | 7480 µM | Cn1cc(C(=O)Nc2cccc(Cl)c2)c(=O)c2ccccc21 | > 90% | Non-Toxic | Non-Toxic
6 | 11.1 µM |  | 157 |  | 1740 µM | O=C(Nc1ccc(Cl)c(Cl)c1)c1c[nH]c2ccccc2c1=O |  | Non-Toxic | Non-Toxic
